Test results: patent publication US10538555B2, “Macrocyclic inhibitors of the PD-1/PD-L1 and CD80(B7-1)/PD-L1 protein/protein interactions” (BRISTOL-MYERS SQUIBB COMPANY, priority 2014, dated 2020)
*1 amine or outer side, *2 acyl side, *3 side chain or, on linkers, in order; H or OH if unused. Where a SMILES comes first, the peptide text is derived from it. Bridges are numbered along the chain shown (N, C = ends). [ ]: non-standard residue; d: D form. ξ: configuration not given here. Trp(1-CH2COOH) = N[C@@H](Cc1cn(CC(=O)O)c2ccccc12)C(=O)O; Phe(3,4,5-F3) = N[C@@H](Cc1cc(F)c(F)c(F)c1)C(=O)O; Phe(4-F) = N[C@@H](Cc1ccc(F)cc1)C(=O)O; d(cisHyp) = O=C(O)[C@H]1C[C@@H](O)CN1; Bta = N[C@@H](Cc1csc2ccccc12)C(=O)O; NMeY = CN[C@@H](Cc1ccc(O)cc1)C(=O)O; Hyp = O=C(O)[C@@H]1C[C@@H](O)CN1; NMeF = CN[C@@H](Cc1ccccc1)C(=O)O; X1 = O=C([C@H]1COCCN1[*:1])[*:2]; dPip(4-aza) = O=C(O)[C@H]1CNCCN1; dHyp = O=C(O)[C@H]1C[C@H](O)CN1; NMehSer = CN[C@@H](CCO)C(=O)O; NMeNle = CCCC[C@H](NC)C(=O)O; Pip = O=C(O)[C@@H]1CCCCN1; dPip = O=C(O)[C@H]1CCCCN1; hSer = N[C@@H](CCO)C(=O)O; NMeA = CN[C@@H](C)C(=O)O; Orn = NCCC[C@H](N)C(=O)O; Dab = NCC[C@H](N)C(=O)O; Dap = NC[C@H](N)C(=O)O; ξC = NC(CS)C(=O)O

Target: T1, Human PD-L1/PD-1 (Homo sapiens, UniProt Q9NZQ7)
T1 construct: TVMV protease cleavage site (C); made in house; host or cells: HEK293T cells
Test: HTRF Human PD-L1/PD-1 binding assay (PD-1-Ig/PD-L1-His)
Conditions: PD-L1-His 10 nM, PD-1-Ig 20 nM; class symbol; read-out: HTRF Human PD-L1/PD-1 Binding Assay IC50 Range
How it was run: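 HTRF read-out (665/620 nm ratio) after 30 min equilibration with Eu-cryptate anti-Ig mAb (1 nM) and APC anti-His mAb (20 nM). Peptides preincubated 15 min with PD-L1-His (10 nM), then PD-1-Ig (20 nM) added for 15 min.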

T1 sequence (Q9NZQ7 with tags, fused parts or gaps): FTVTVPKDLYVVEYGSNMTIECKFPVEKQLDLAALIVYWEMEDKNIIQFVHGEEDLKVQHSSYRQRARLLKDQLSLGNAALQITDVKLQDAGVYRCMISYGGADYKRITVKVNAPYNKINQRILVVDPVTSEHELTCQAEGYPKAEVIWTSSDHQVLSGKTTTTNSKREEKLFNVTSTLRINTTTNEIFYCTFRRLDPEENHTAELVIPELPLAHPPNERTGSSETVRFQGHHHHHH

CCCC[C@H]1C(=O)N(C)[C@@H](CCCC)C(=O)N[C@@H](CCC(=O)O)C(=O)NC(C(=O)NCC(N)=O)CSCC(=O)N[C@@H](Cc2ccc(O)cc2)C(=O)N(C)[C@@H](C)C(=O)N[C@@H](CC(N)=O)C(=O)N2CCC[C@H]2C(=O)N[C@@H](Cc2c[nH]cn2)C(=O)N[C@@H](CC(N)=O)C(=O)N2C[C@H](O)C[C@H]2C(=O)N[C@@H](Cc2c[nH]c3ccccc23)C(=O)N[C@@H](CCO)C(=O)N[C@@H](Cc2c[nH]c3ccccc23)C(=O)N1C (some centres unmarked) [Example 9187] ({CH2CO}-Y[NMeA]NPHN[Hyp]W[hSer]W[NMeNle][NMeNle]E[ξC]G-NH2; thioether N-14)
IC50: 1 to 9.9 nM

CCCC[C@H]1C(=O)N(C)[C@@H](CCCC)C(=O)N[C@@H](CCC(=O)O)C(=O)N[C@H](C(=O)NCC(N)=O)CSCC(=O)N[C@@H](Cc2ccc(O)cc2)C(=O)N(C)[C@@H](C)C(=O)N[C@@H](CC(=O)O)C(=O)N2CCC[C@H]2C(=O)N[C@@H](Cc2c[nH]cn2)C(=O)N[C@@H](CCC(N)=O)C(=O)N2C[C@H](O)C[C@H]2C(=O)N[C@@H](Cc2c[nH]c3ccccc23)C(=O)N[C@@H](CCN)C(=O)N[C@@H](Cc2c[nH]c3ccccc23)C(=O)N1C [Example 5218] ({CH2CO}-Y[NMeA]DPHQ[Hyp]W[Dab]W[NMeNle][NMeNle]ECG-NH2; thioether N-14)
IC50: 10 to 99.9 nM

CCCC[C@H]1C(=O)N2CCC[C@@H]2C(=O)N[C@@H](CC(=O)O)C(=O)N[C@@H](C(C)C)C(=O)N(C)[C@@H](Cc2ccccc2)C(=O)N[C@@H](CCC(=O)O)C(=O)N2CCOC[C@@H]2C(=O)N[C@@H](Cc2c[nH]c3ccccc23)C(=O)N[C@@H](Cc2ccc(O)cc2)C(=O)N[C@@H](CC(C)C)C(=O)N[C@H](C(=O)NCC(N)=O)CSCC(=O)N[C@@H](Cc2cc(F)c(F)c(F)c2)C(=O)N(C)[C@@H](Cc2ccc(O)cc2)C(=O)N1C [Example 10599] ({CH2CO}-[Phe(3,4,5-F3)][NMeY][NMeNle][dP]DV[NMeF]E[X1]WYLCG-NH2; thioether N-13)
IC50: 1 to 9.9 nM

CCCC[C@H]1C(=O)N2CCC[C@@H]2C(=O)N[C@@H](CC(=O)O)C(=O)N[C@@H](C(C)C)C(=O)N(C)[C@@H](CCOC)C(=O)N[C@@H](CCC(N)=O)C(=O)N2CCC[C@@H]2C(=O)N[C@@H](Cc2c[nH]c3ccccc23)C(=O)N[C@@H](Cc2ccc(O)cc2)C(=O)N[C@@H](CC(C)C)C(=O)N[C@H](C(=O)NCC(N)=O)CSCC(=O)N[C@@H](Cc2ccc(F)cc2)C(=O)N(C)[C@@H](Cc2ccccc2)C(=O)N1C [Example 9223] ({CH2CO}-[Phe(4-F)][NMeF][NMeNle][dP]DV[NMehSer](Me)Q[dP]WYLCG-NH2; thioether N-13)
IC50: 100 to 990 nM

CCCC[C@H]1C(=O)N2CCNC[C@@H]2C(=O)N[C@@H](CC(=O)O)C(=O)N[C@@H](C(C)C)C(=O)N(C)[C@@H](Cc2ccccc2)C(=O)N[C@@H](CCC(=O)O)C(=O)N2C[C@H](O)C[C@@H]2C(=O)N[C@@H](Cc2c[nH]c3ccccc23)C(=O)N[C@@H](Cc2ccc(O)cc2)C(=O)N[C@@H](CC(C)C)C(=O)N[C@H](C(=O)NCC(N)=O)CSCC(=O)N[C@@H](Cc2cc(F)c(F)c(F)c2)C(=O)N(C)[C@@H](Cc2ccccc2)C(=O)N1C [Example 10167] ({CH2CO}-[Phe(3,4,5-F3)][NMeF][NMeNle][dPip(4-aza)]DV[NMeF]E[d(cisHyp)]WYLCG-NH2; thioether N-13)
IC50: 1 to 9.9 nM

CCCC[C@H]1C(=O)N2C[C@H](O)C[C@@H]2C(=O)N[C@@H](CC(=O)O)C(=O)N[C@@H](C(C)C)C(=O)N(C)[C@@H](Cc2ccccc2)C(=O)N[C@@H](Cc2ccc(O)cc2)C(=O)N2C[C@@H](O)C[C@@H]2C(=O)N[C@@H](Cc2c[nH]c3ccccc23)C(=O)N[C@@H](Cc2ccc(O)cc2)C(=O)N[C@@H](CCCN)C(=O)N[C@H](C(=O)NCC(N)=O)CSCC(=O)N[C@@H](Cc2cc(F)c(F)c(F)c2)C(=O)N(C)[C@@H](Cc2ccccc2)C(=O)N1C [Example 9372] ({CH2CO}-[Phe(3,4,5-F3)][NMeF][NMeNle][d(cisHyp)]DV[NMeF]Y[dHyp]WY[Orn]CG-NH2; thioether N-13)
IC50: 1 to 9.9 nM

CCCC[C@H]1C(=O)N2C[C@@H](O)C[C@@H]2C(=O)N[C@@H](CC(=O)O)C(=O)N[C@@H](C(C)C)C(=O)N(C)[C@@H](Cc2ccccc2)C(=O)N[C@@H](CCC(=O)O)C(=O)N2CCCC[C@@H]2C(=O)N[C@@H](Cc2cn(CC(=O)O)c3ccccc23)C(=O)N[C@@H](Cc2ccc(O)cc2)C(=O)N[C@@H](CC(C)C)C(=O)N[C@H](C(=O)NCC(N)=O)CSCC(=O)N[C@@H](Cc2cc(F)c(F)c(F)c2)C(=O)N(C)[C@@H](Cc2ccccc2)C(=O)N1C [Example 10586] ({CH2CO}-[Phe(3,4,5-F3)][NMeF][NMeNle][dHyp]DV[NMeF]E[dPip][Trp(1-CH2COOH)]YLCG-NH2; thioether N-13)
IC50: 1 to 9.9 nM

CCCC[C@H]1C(=O)N(C)[C@@H](CCCC)C(=O)N[C@@H](C)C(=O)NC(C(=O)NCC(N)=O)CSCC(=O)N[C@@H](Cc2ccc(O)cc2)C(=O)N(C)[C@@H](C)C(=O)N[C@@H](CC(N)=O)C(=O)N2CCC[C@H]2C(=O)N[C@@H](CC(N)=O)C(=O)N[C@@H](CC(C)C)C(=O)N2C[C@H](O)C[C@H]2C(=O)N[C@@H](Cc2c[nH]c3ccccc23)C(=O)N[C@@H](CO)C(=O)N[C@@H](Cc2c[nH]c3ccccc23)C(=O)N1C (some centres unmarked) [Example 9134]
IC50: 1 to 9.9 nM

CCCC[C@H]1C(=O)N(C)[C@@H](CCCC)C(=O)N[C@@H](C)C(=O)N[C@H](C(=O)NCC(N)=O)CSCC(=O)N[C@@H](Cc2ccc(O)cc2)C(=O)N2CCCC[C@H]2C(=O)N[C@@H](CC(=O)O)C(=O)N2CCC[C@H]2C(=O)N[C@@H](Cc2cnc[nH]2)C(=O)N[C@@H](CCC(N)=O)C(=O)N2C[C@H](O)C[C@H]2C(=O)N[C@@H](Cc2c[nH]c3ccccc23)C(=O)N[C@@H](CO)C(=O)N[C@@H](Cc2csc3ccccc23)C(=O)N1C [Example 1508] ({CH2CO}-Y[Pip]DPHQ[Hyp]WS[Bta][NMeNle][NMeNle]ACG-NH2; thioether N-14)
IC50: 1 to 9.9 nM

CCCC[C@H]1C(=O)N[C@@H](CC(N)=O)C(=O)N2CCC[C@H]2C(=O)N[C@@H](CO)C(=O)N[C@@H](CCO)C(=O)N2CCC[C@H]2C(=O)N[C@@H](Cc2c[nH]c3ccccc23)C(=O)N[C@@H](CCO)C(=O)N[C@@H](Cc2c[nH]c3ccccc23)C(=O)N(C)[C@@H](C)C(=O)N(C)[C@@H](C)C(=O)N[C@@H](CCC(=O)O)C(=O)NC(C(=O)NCC(N)=O)CSCC(=O)N[C@@H](Cc2ccc(O)cc2)C(=O)N1C (some centres unmarked) [Example 10215] ({CH2CO}-Y[NMeNle]NPS[hSer]PW[hSer]W[NMeA][NMeA]E[ξC]G-NH2; thioether N-14)
IC50: 1000 to 10000 nM

CCCC[C@H]1C(=O)N(C)[C@@H](CCCC)C(=O)N[C@@H](CCCN)C(=O)N[C@H](C(=O)NCC(N)=O)CSCC(=O)N[C@@H](Cc2ccc(OC)cc2)C(=O)N(C)[C@@H](C)C(=O)N[C@@H](CC(N)=O)C(=O)N2CCC[C@H]2C(=O)N[C@@H](CN)C(=O)N[C@@H](CCC(=O)O)C(=O)N2C[C@H](O)C[C@H]2C(=O)N[C@@H](Cc2c[nH]c3ccccc23)C(=O)N[C@@H](CC(=O)O)C(=O)N[C@@H](Cc2c[nH]c3ccccc23)C(=O)N1C [Example 7100] ({CH2CO}-Y(Me)[NMeA]NP[Dap]E[Hyp]WDW[NMeNle][NMeNle][Orn]CG-NH2; thioether N-14)
IC50: 1 to 9.9 nM
